Our source for the EC50 values is ChEMBL document CHEMBL1149026, “Ohioensins and pallidisetins: novel cytotoxic agents from the moss Polytrichum pallidisetum” (1994).

Values after ≈ are worked out from the molar mass of the structure shown.

Holding throughout (format): functional
Common to all, as to details: read-out: ED50 (the source's name)

Assay [1] deals with RPMI-7951. As to the kind of experiment: Cytotoxicity against human RPMI7951 cells.
Assay [2] concerns U-251. Put plainly: Cytotoxicity against human U251 cells.
Assay [3] relates to HT-29. As to the kind of experiment: Cytotoxicity against human HT-29 cells.
In assay [4] the test system is A549. As to the kind of experiment: Cytotoxicity against human A549 cells.

`O=C(/C=C\c1ccccc1)c1cc(O)cc2c1CC(c1ccccc1)O2` (stereo not given) [PALLIDISETIN B]: the EC50 in assay [1] and in assay [2] was 2 µg/mL (≈ 5.84 µM) each time.
For the molecule `COc1cc(OC)c2c3c1C(=O)C[C@@H]1c4ccccc4O[C@@H](c4cccc(O)c4-2)[C@H]31` [1-O-METHYLOHIOENSIN B], the EC50 in assay [1] amounted to 1 µg/mL (≈ 2.5 µM); in assay [3], 1 µg/mL (≈ 2.5 µM); in assay [2], 2 µg/mL (≈ 4.99 µM).
Turning to `COc1cc(OC)c2c3c1-c1c(O)cccc1[C@@H]1Oc4ccccc4[C@@H](C[C@@H]2OC)[C@@H]31` [1,14-DI-O-METHYLDIHYDROOHIOENSIN B], the EC50 in assay [4] and in assay [1] was 1 µg/mL (≈ 2.4 µM) each time.
In the case of `O=C(/C=C/c1ccccc1)c1cc(O)cc2c1CC(c1ccccc1)O2` (stereo not given) [PALLIDISETIN A], the EC50 in assay [1] and in assay [2] was 1 µg/mL (≈ 2.92 µM) in each case.
For the molecule `COc1cc(OC)c2c3c1-c1c(O)cccc1[C@@H]1Oc4ccccc4[C@@H](C[C@@H]2O)[C@@H]31` [1-O-METHYLDIHYDROOHIOENSIN B], the EC50 in assay [2] was determined as 0.8 µg/mL (≈ 1.99 µM).
